Data as given in US20050239656A1, “Pyridine compounds or salts thereof and herbicides containing the same” (priority 2002, published 2005).

Assays:
redroot pigweed = assay: Test Example 2: soil surface treatment, upland pot test; format: in vivo, Amaranthus retroflexus L.
From the text: (§1) Upland field soil was put into a 1/170,000 ha pot, and seed of various plants (barnyardgrass, crabgrass, green foxtail, redroot pigweed, prickly sida, velvetleaf, rice, wheat, corn, soybean) were sown. On the 1st day after the sowing, a wettable powder or emulsifiable concentrate having the compound of the present invention formulated in accordance with a usual formulation method, was weighed so that the active ingredient would be a predetermined amount, and diluted with water in an amount of 1,500 L/ha. The herbicide thus adjusted was applied by a small size sprayer for soil surface treatment. On the 20th to 28th days after the application of the herbicide, the growth of the respective plants was visually observed, and the herbicidal effects were evaluated by the growth controlling degrees (%) ranging from 0 (equivalent to the non-treated plot) to 100 (complete kill), whereby the results shown in Table 4, were obtained.

crabgrass = assay: as above; format: in vivo, Digitaria sanguinalis L.
From the text: as §1

rice = assay: as above; format: in vivo, Oryza sativa L.
From the text: as §1

prickly sida = assay: as above; format: in vivo, Sida spinosa L.
From the text: as §1

green foxtail = assay: as above; format: in vivo, Setaria viridis L.
From the text: as §1

corn = assay: as above; format: in vivo, Zea mays L.
From the text: as §1

barnyardgrass [1] = assay: as above; format: in vivo, Echinochloa crus-galli L.
From the text: as §1

soybean = assay: as above; format: in vivo, Glycine max Merr.
From the text: as §1

velvetleaf = assay: as above; format: in vivo, Abutilon theophrasti MEDIC.
From the text: as §1

japanese bulrush = assay: Test Example 3: paddy pot test, application under submerged conditions; format: in vivo, Scirpus juncoides; conditions: submerged application at 0.5 leaf stage, visually observed 14 days after application, 0 = non-treated, 100 = complete kill
From the text: (§2) Paddy field soil was put into a 1/1,000,000 ha pot, and seed of barnyardgrass and japanese bulrush were sown and slightly covered with soil. Then, the pot was left to stand still in a greenhouse in a state where the depth of flooding water was from 0.5 to 1 cm, and one day or two days later, tubers of japanese ribbon wapato were planted. Thereafter, the depth of flooding water was maintained at a level of from 3 to 4 cm, and when barnyardgrass and japanese bulrush reached a 0.5 leaf stage and japanese ribbon wapato reached a primary leaf stage, an aqueous diluted solution of a wettable powder or emulsifiable concentrate having the compound of the present invention formulated in accordance with a usual formulation method, was uniformly applied under submerged conditions by a pipette so that the dose of the active ingredient would be at a predetermined level. On the 14 days after the application of the herbicide, the growth of barnyard grass, japanese burlrush and japanese ribbon wapato was visually observed and on the 21st day after the application of the herbicide, the growth of rice was visually observed, and the herbicidal effects were evaluated by the growth-controlling degrees (%) ranging from 0 (equivalent to the non-treated plot) to 100 (complete kill), whereby the results shown in Table 5 were obtained.

rice (var. Nihonbare) = assay: Test Example 3: paddy pot test, transplanted rice; format: in vivo, Oryza sativa L.; conditions: applied 4th day after transplantation, visually observed 21st day after application, 0 = non-treated, 100 = complete kill
From the text: as §2, with “On the other hand, paddy field soil was put into a 1/1,000,000 ha pot and puddled and leveled, and the depth of flooding water was from 3 to 4 cm. Next day, rice (var. Nihonbare) of 2 leaf stage was transplanted in a depth of 3 cm. On the 4th day after the transplantation, the compound of the present invention was applied in the same manner as described above. On the 14 days” for “On the 14 days”

barnyardgrass [2] = assay: Test Example 3: paddy pot test, application under submerged conditions; format: in vivo, Echinochloa crus-galli L.; conditions: submerged application at 0.5 leaf stage, visually observed 14 days after application, 0 = non-treated, 100 = complete kill
From the text: as §2

japanese ribbon wapato = assay: as above; format: in vivo, Sagittaria pygniaea; conditions: submerged application at primary leaf stage, visually observed 14 days after application, 0 = non-treated, 100 = complete kill
From the text: as §2

[3] = active ingredient 500 g/ha, observed 20th to 28th day
[4] = active ingredient 250 g/ha, observed 20th to 28th day
[5] = active ingredient 500 g/ha, observed day 21, 0 = non-treated, 100 = complete kill

SMILES	Growth controlling degree (%) Redroot pigweed (redroot pigweed; [3])	Growth controlling degree (%) Crabgrass (crabgrass; [3])	Growth controlling degree (%) Rice (rice; [3])	Growth controlling degree (%) Prickly sida (prickly sida; [3])	Growth controlling degree (%) Green foxtail (green foxtail; [3])	Growth controlling degree (%) Corn (corn; [3])	Growth controlling degree (%) Barnyardgrass (barnyardgrass [1]; [3])	Growth controlling degree (%) Soyabean (soybean; [3])	Growth controlling degree (%) Velvetleaf (velvetleaf; [3])	Growth controlling degree (%) Japanese bulrush (japanese bulrush; active ingredient 500 g/ha)	Growth controlling degree (%) Rice (rice (var. Nihonbare); active ingredient 500 g/ha)	Growth controlling degree (%) Japanese bulrush (japanese bulrush; active ingredient 250 g/ha)	Growth controlling degree (%) Rice (rice (var. Nihonbare); active ingredient 250 g/ha)	Growth controlling degree (%) Barnyardgrass (barnyardgrass [2]; active ingredient 250 g/ha)	other results
CC(C)C(c1cnccc1C(F)(F)F)N(C)C(=O)CCl (stereo not drawn) [I-168]	100%	98%	98%	70%	98%	10%	100%	20%	0%						
CC(C)C(c1cnccc1C(F)(F)F)N(C)C(=O)C=Cc1cccnc1 (stereo not drawn) [Compound I-184]	30%	98%	20%	80%	40%	0%	30%	20%	50%	90%	10%				Growth controlling degree (%) Barnyardgrass (barnyardgrass [2]; active ingredient 500 g/ha): 70%
CC(C)C(c1cnccc1C(F)(F)F)N(C)C(=O)Cc1ccc(Cl)cc1 (stereo not drawn) [I-23]										90%	30%				Growth controlling degree (%) Redroot pigweed (redroot pigweed; [4]): 85%; Growth controlling degree (%) Japanese ribbon wapato (japanese ribbon wapato; active ingredient 500 g/ha): 85%; Growth controlling degree (%) Crabgrass (crabgrass; [4]): 98%; Growth controlling degree (%) Rice (rice; [4]): 0%; Growth controlling degree (%) Prickly sida (prickly sida; [4]): 98%; Growth controlling degree (%) Green foxtail (green foxtail; [4]): 98%; Growth controlling degree (%) Corn (corn; [4]): 10%; Growth controlling degree (%) Barnyardgrass (barnyardgrass [1]; [4]): 95%; Growth controlling degree (%) Soyabean (soybean; [4]): 20%; Growth controlling degree (%) Velvetleaf (velvetleaf; [4]): 60%
CCN(C(=O)Cc1ccc(C)cc1)C(c1cnccc1C(F)(F)F)C(C)C (stereo not drawn) [I-101]	80%		0%	30%	70%	10%	70%	0%	30%			98%	10%	100%	Growth controlling degree (%) Japanese ribbon wapato (japanese ribbon wapato; active ingredient 250 g/ha): 40%
CC(C)C(c1cnccc1C(F)(F)F)N(C)C(=O)Cc1ccccc1F (stereo not drawn) [Compound I-25]										98%	30%				Growth controlling degree (%) Redroot pigweed (redroot pigweed; [4]): 100%; Growth controlling degree (%) Japanese ribbon wapato (japanese ribbon wapato; active ingredient 500 g/ha): 100%; Growth controlling degree (%) Crabgrass (crabgrass; [4]): 100%; Growth controlling degree (%) Rice (rice; [4]): 20%; Growth controlling degree (%) Prickly sida (prickly sida; [4]): 100%; Growth controlling degree (%) Green foxtail (green foxtail; [4]): 100%; Growth controlling degree (%) Corn (corn; [4]): 20%; Growth controlling degree (%) Barnyardgrass (barnyardgrass [1]; [4]): 98%; Growth controlling degree (%) Soyabean (soybean; [4]): 10%; Growth controlling degree (%) Velvetleaf (velvetleaf; [4]): 95%
CC(C)C(c1cnccc1C(F)(F)F)N(C)C(=O)Nc1ccccc1 (stereo not drawn) [Compound I-230]	60%	98%	10%	30%	70%	40%	50%	0%	0%						
CNC(=S)N(C)C(c1cnccc1C(F)(F)F)C(C)C (racemic) [Compound I-112]	70%	70%	40%	40%	50%	10%	20%	10%	10%						
CC(C)C(c1cnccc1C(F)(F)F)N(C)C(=O)COc1cccc(C(F)(F)F)c1 (stereo not drawn) [I-254]												98%	0%	100%	Growth controlling degree (%) Redroot pigweed (redroot pigweed; [5]): 50%; Growth controlling degree (%) Crabgrass (crabgrass; [5]): 98%; Growth controlling degree (%) Rice (rice; [5]): 10%; Growth controlling degree (%) Prickly sida (prickly sida; [5]): 90%; Growth controlling degree (%) Green foxtail (green foxtail; [5]): 100%; Growth controlling degree (%) Corn (corn; [5]): 10%; Growth controlling degree (%) Barnyardgrass (barnyardgrass [1]; [5]): 90%; Growth controlling degree (%) Soyabean (soybean; [5]): 10%; Growth controlling degree (%) Velvetleaf (velvetleaf; [5]): 70%
CC(C)C(c1cnccc1C(F)(F)F)N(C)C(=O)Cc1ccc(C(F)(F)F)cc1F (stereo not drawn) [Compound I-105]	60%	98%	10%	80%	100%	30%	70%	10%	10%			80%	20%	100%	
Cc1ccc(C=CC(=O)N(C)C(c2cnccc2C(F)(F)F)C(C)C)cc1 (stereo not drawn) [I-181]	40%	98%	40%		95%	10%	30%	0%	30%	98%	10%				Growth controlling degree (%) Japanese ribbon wapato (japanese ribbon wapato; active ingredient 500 g/ha): 60%; Growth controlling degree (%) Barnyardgrass (barnyardgrass [2]; active ingredient 500 g/ha): 95%
CC(C)C(c1cnccc1C(F)(F)F)N(C)C(=O)SCc1ccccc1 (racemic) [I-113]	70%	70%	30%	60%	95%	20%	60%	10%	60%			30%	0%	95%	
